Source: patent US20260007599A1, “TICAGRELOR IV FORMULATIONS FOR USE IN THE TREATMENT OF GRAM-POSITIVE BACTEREMIA” (Hyloris Developments SA, priority 2023, published 2026)
Marks after values point to notes of the source that are not given here.

What was measured:
Format in all cases: physicochemical
[1] = Bulk hold study, ticagrelor 8 mg/ml in HPβCD 30% w/w, phosphate buffer pH 7.5
Procedure: To investigate the impact of temperature and hold time, a new composition was prepared as per below Table 19. In first step a phosphate buffer at pH 7.5 was prepared and the buffered solution was heated to 40° C.-45° C. HPβCD was added to the buffered solution under continuous mixing. […] It usually took 30 mins to 4 hours depending on batch size. Then this solution was filtered through a 0.22-micron filter and packed in suitable clear or amber colored glass vials.

[2] = Impact of ticagrelor particle size on dissolution
Procedure: In a further example the impact of particle size on solubility was tested. Two different particle size diameters for the ticagrelor active ingredient were screened, 5.5 and 15 micrometers. The pH and osmolality were not affected.

[3] = Solubilization of ticagrelor in unbuffered cyclodextrin stock solutions in milli Q water, appearance on shaking platform;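 also: plus means clear and fully dissolved while plus-minus means clear solution with precipitation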
Procedure: In a first example two different types of cyclodextrin were used and compared for the solubilization of ticagrelor. An unbuffered stock solution of HPBCD or SBECD was made in water at the target concentrations of 20 w/w %, 25 w/w %, 30 w/w %, 35 w/w % and 40 w/w %. Ticagrelor was added slowly under vortex. Ticagrelor was used at concentrations of 5, 10 or 14 mg/ml in milli Q water. The ticagrelor-cyclodextrin solutions were left on a shaking platform. No sonification or heat was applied.

[4] = bulk hold at 45° C. in glass vials, T = 1 h
[5] = bulk hold at 45° C. in glass vials, T = 110 h
[6] = bulk solution in sealed vials, T = 1 M, 25° C.
[7] = bulk solution in sealed vials, T = 1 M, 40° C.
[8] = particle distribution D90 5.5 μm, micronized
[9] = particle distribution D90 15 μm, unmicronized

Structure (SMILES): CCCSc1nc(N[C@@H]2C[C@H]2c2ccc(F)c(F)c2)c2nnn([C@@H]3C[C@H](OCCO)[C@@H](O)[C@H]3O)c2n1 [ticagrelor, (1S,2S,3R,5S)-3-{7-[(1R,2S)-2-(3,4-difluorophenyl)cyclopropylamino]5-(propylthio)-3H-(1,2,3)triazolo (4,5-D)pyrimidin-3-yl}-5-(2 hydroxyethoxy) cyclopentane-1,2-diol]
- Acetal impurity, average content ([1]; bulk hold at 30° C., T0): 0.04%
- Amine impurity, average content ([1]; bulk hold at 30° C., T0): 0.06%
- Assay ticagrelor ([1]; bulk hold at 30° C., T0): 105.60%
- Regiomer impurity, average content ([1]; bulk hold at 30° C., T0): 0.00%
- Sum impurities >0.05 ([1]; bulk hold at 30° C., T0): 0.10%
- Total impurities ([1]; bulk hold at 30° C., T0): 0.21%
- Triol Impurity, average content ([1]; bulk hold at 30° C., T0): 0.05%
- Acetal impurity, average content ([1]; bulk hold at 30° C., T4 W): 0.04%
- Amine impurity, average content ([1]; bulk hold at 30° C., T4 W): 0.06%
- Assay ticagrelor ([1]; bulk hold at 30° C., T4 W): 106.14%
- Regiomer impurity, average content ([1]; bulk hold at 30° C., T4 W): 0.00%
- Sum impurities >0.05 ([1]; bulk hold at 30° C., T4 W): 0.06%
- Total impurities ([1]; bulk hold at 30° C., T4 W): 0.21%
- Triol Impurity, average content ([1]; bulk hold at 30° C., T4 W): 0.04%
- Acetal impurity, average content [1, 4]: 0.04%
- Amine impurity, average content [1, 4]: 0.05%
- Assay ticagrelor [1, 4]: 107.87%
- Impurity at relative retention time 1.33, average content [1, 4]: 0.07%
- Sum impurities >0.05 [1, 4]: 0.12%
- Total impurities [1, 4]: 0.20%
- Triol Impurity, average content [1, 4]: 0.04%
- Acetal impurity, average content [1, 5]: 0.04%
- Amine impurity, average content [1, 5]: 0.07%
- Assay ticagrelor [1, 5]: 109.10%
- Impurity at relative retention time 1.33, average content [1, 5]: 0.03%
- Sum impurities >0.05 [1, 5]: 0.11%
- Total impurities [1, 5]: 0.28%
- Triol Impurity, average content [1, 5]: 0.05%
- Acetal impurity, average content [1, 6]: 0.03%
- Amine impurity, average content [1, 6]: 0.06%
- Assay ticagrelor [1, 6]: 107.22%
- Impurity at relative retention time 1.03, average content [1, 6]: 0.02%
- Impurity at relative retention time 1.33, average content [1, 6]: 0.03%
- Regiomer impurity, average content [1, 6]: 0.03%
- Sum impurities >0.05 [1, 6]: 0.06%
- Total impurities [1, 6]: 0.23%
- Triol Impurity, average content [1, 6]: 0.01%
- Acetal impurity, average content [1, 7]: 0.00%
- Amine impurity, average content [1, 7]: 0.06%
- Assay ticagrelor [1, 7]: 105.16%
- Impurity at relative retention time 1.03, average content [1, 7]: 0.02%
- Impurity at relative retention time 1.33, average content [1, 7]: 0.08%
- Regiomer impurity, average content [1, 7]: 0.08%
- Sum impurities >0.05 [1, 7]: 0.21%
- Total impurities [1, 7]: 0.28%
- Triol Impurity, average content [1, 7]: 0.00%
- Dissolution time [2, 8]: 33 min
- Osmolality [2, 8]: 751 mOsm/kg
- pH [2, 8]: 7.68
- Dissolution time [2, 9]: 125 min
- Osmolality [2, 9]: 753 mOsm/kg
- pH [2, 9]: 7.70
- Appearance in cyclodextrin ([3]; HPβCD 20% w/w, ticagrelor 5 mg/ml, after 5 min of shaking): − (translucent solution with precipitation)
- Appearance in cyclodextrin ([3]; HPβCD 20% w/w, ticagrelor 5 mg/ml, after 30 min of shaking): +/−
- Appearance in cyclodextrin ([3]; HPβCD 20% w/w, ticagrelor 5 mg/ml, after 60 min of shaking): +/−
- Appearance in cyclodextrin ([3]; HPβCD 20% w/w, ticagrelor 5 mg/ml, after 3 h of shaking): +/−
- Appearance in cyclodextrin ([3]; HPβCD 20% w/w, ticagrelor 5 mg/ml, after overnight shaking): − (translucent solution with precipitation)
- Appearance in cyclodextrin ([3]; HPβCD 20% w/w, ticagrelor 10 mg/ml, after 5 min of shaking): − (translucent solution with precipitation)
- Appearance in cyclodextrin ([3]; HPβCD 20% w/w, ticagrelor 10 mg/ml, after 30 min of shaking): − (translucent solution with precipitation)
- Appearance in cyclodextrin ([3]; HPβCD 20% w/w, ticagrelor 10 mg/ml, after 60 min of shaking): − (translucent solution with precipitation)
- Appearance in cyclodextrin ([3]; HPβCD 20% w/w, ticagrelor 10 mg/ml, after 3 h of shaking): − (translucent solution with precipitation)
- Appearance in cyclodextrin ([3]; HPβCD 20% w/w, ticagrelor 10 mg/ml, after overnight shaking): − (translucent solution with precipitation)
- Appearance in cyclodextrin ([3]; HPβCD 20% w/w, ticagrelor 14 mg/ml, after 5 min of shaking): − (translucent solution with precipitation)
- Appearance in cyclodextrin ([3]; HPβCD 20% w/w, ticagrelor 14 mg/ml, after 30 min of shaking): − (translucent solution with precipitation)
- Appearance in cyclodextrin ([3]; HPβCD 20% w/w, ticagrelor 14 mg/ml, after 60 min of shaking): − (translucent solution with precipitation)
- Appearance in cyclodextrin ([3]; HPβCD 20% w/w, ticagrelor 14 mg/ml, after 3 h of shaking): − (translucent solution with precipitation)
- Appearance in cyclodextrin ([3]; HPβCD 20% w/w, ticagrelor 14 mg/ml, after overnight shaking): − (translucent solution with precipitation)
- Appearance in cyclodextrin ([3]; HPβCD 25% w/w, ticagrelor 5 mg/ml, after 5 min of shaking): − (translucent solution with precipitation)
- Appearance in cyclodextrin ([3]; HPβCD 25% w/w, ticagrelor 5 mg/ml, after 30 min of shaking): +/−
- Appearance in cyclodextrin ([3]; HPβCD 25% w/w, ticagrelor 5 mg/ml, after 60 min of shaking): +/−
- Appearance in cyclodextrin ([3]; HPβCD 25% w/w, ticagrelor 5 mg/ml, after 3 h of shaking): +/−
- Appearance in cyclodextrin ([3]; HPβCD 25% w/w, ticagrelor 5 mg/ml, after overnight shaking, after one hour of sonication): +* (clear, appeared completely dissolved)
- Appearance in cyclodextrin ([3]; HPβCD 25% w/w, ticagrelor 10 mg/ml, after 5 min of shaking): − (translucent solution with precipitation)
- Appearance in cyclodextrin ([3]; HPβCD 25% w/w, ticagrelor 10 mg/ml, after 30 min of shaking): − (translucent solution with precipitation)
- Appearance in cyclodextrin ([3]; HPβCD 25% w/w, ticagrelor 10 mg/ml, after 60 min of shaking): − (translucent solution with precipitation)
- Appearance in cyclodextrin ([3]; HPβCD 25% w/w, ticagrelor 10 mg/ml, after 3 h of shaking): − (translucent solution with precipitation)
